One compound from publication PMC9974930 (Journal of medicinal chemistry, 2023) can be followed below.

Test [1] concerns the target T1, recombinant human sEH (HsEH) (Homo sapiens, UniProt P34913).
T1 sequence (P34913 1-555): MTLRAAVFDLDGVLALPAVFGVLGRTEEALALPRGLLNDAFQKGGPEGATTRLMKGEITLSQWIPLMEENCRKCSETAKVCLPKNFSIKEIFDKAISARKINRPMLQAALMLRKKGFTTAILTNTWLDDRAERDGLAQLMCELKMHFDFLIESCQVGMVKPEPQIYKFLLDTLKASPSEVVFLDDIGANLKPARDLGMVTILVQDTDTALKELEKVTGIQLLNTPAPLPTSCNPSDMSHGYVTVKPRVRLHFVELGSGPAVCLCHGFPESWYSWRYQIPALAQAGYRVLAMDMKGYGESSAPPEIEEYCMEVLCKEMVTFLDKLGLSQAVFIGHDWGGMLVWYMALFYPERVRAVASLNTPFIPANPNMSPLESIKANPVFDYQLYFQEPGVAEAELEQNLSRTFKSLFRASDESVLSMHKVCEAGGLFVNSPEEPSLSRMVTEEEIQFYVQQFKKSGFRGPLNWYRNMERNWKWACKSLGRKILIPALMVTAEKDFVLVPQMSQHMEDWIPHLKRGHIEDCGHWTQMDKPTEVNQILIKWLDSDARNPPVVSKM
Description: biochemical.

The next test has as its target T2, murine sEH (MsEH) (Mus musculus, UniProt P34914).
T2 sequence (P34914 1-554): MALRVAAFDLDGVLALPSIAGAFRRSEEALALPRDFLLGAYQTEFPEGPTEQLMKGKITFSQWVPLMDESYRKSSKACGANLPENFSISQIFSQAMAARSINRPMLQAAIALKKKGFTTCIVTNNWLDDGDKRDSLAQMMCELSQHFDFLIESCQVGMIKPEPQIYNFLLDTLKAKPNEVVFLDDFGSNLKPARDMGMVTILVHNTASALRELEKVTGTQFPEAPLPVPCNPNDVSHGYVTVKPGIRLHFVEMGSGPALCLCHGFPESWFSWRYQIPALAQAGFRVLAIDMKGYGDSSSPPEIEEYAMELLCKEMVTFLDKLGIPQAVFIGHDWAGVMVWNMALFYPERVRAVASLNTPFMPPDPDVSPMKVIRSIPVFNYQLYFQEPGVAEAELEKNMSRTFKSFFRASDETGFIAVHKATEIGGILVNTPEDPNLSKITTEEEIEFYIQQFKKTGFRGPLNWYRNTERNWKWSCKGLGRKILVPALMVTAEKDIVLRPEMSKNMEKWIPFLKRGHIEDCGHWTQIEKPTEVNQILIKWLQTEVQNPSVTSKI
Description: sEH inhibition, fluorescent-based assay with PHOME substrate. It is filed as biochemical.

Usually IC50 stands for the concentration that inhibits the measured activity by half. As to `C[C@]12C[C@@H]3C[C@](C)(C1)C[C@@](NC(=O)Nc1ccc(C(=O)N4CCC(C(=O)N5CCN(CCO)CC5)CC4)cc1F)(C3)C2` [A4, 1-((1r,3R,5S,7r)-3,5-Dimethyladamantan-1-yl)-3-(2-fluoro-4-(4-(4-(2-hydroxyethyl)piperazine-1-carbonyl)piperidine-1-carbonyl)phenyl)urea], the figures for the IC50 (in test [1]; against murine sEH (MsEH)) were 12.5 nM and 0.32 nM, respectively.
